Laboratory results reported in PubChem BioAssay AID1259407 (Chemical Carcinogenesis Research Information System (CCRIS), 2018).
Calls of active or inactive are those of the source. The rule behind the calls is not given here.

Tested on: CCRIS mutagenicity, Ames/micronucleus/aberration tests
Assay: CCRIS mutagenicity studies
[1] = Test System: AMES SALMONELLA TYPHIMURIUM, Strain/Indicator: TA97, Metabolic Activation: HAMSTER, LIVER, S-9, AROCLOR 1254 (10 OR 30%), Method: PREINCUBATION
[2] = Test System: AMES SALMONELLA TYPHIMURIUM, Strain/Indicator: TA97, Metabolic Activation: NONE, Method: PREINCUBATION
[3] = Test System: AMES SALMONELLA TYPHIMURIUM, Strain/Indicator: TA97, Metabolic Activation: RAT, LIVER, S-9, AROCLOR 1254 (10 OR 30%), Method: PREINCUBATION
[4] = Test System: AMES SALMONELLA TYPHIMURIUM, Strain/Indicator: TA98, Metabolic Activation: HAMSTER, LIVER, S-9, AROCLOR 1254 (10 OR 30%), Method: PREINCUBATION
[5] = Test System: AMES SALMONELLA TYPHIMURIUM, Strain/Indicator: TA98, Metabolic Activation: NONE, Method: PREINCUBATION
[6] = Test System: AMES SALMONELLA TYPHIMURIUM, Strain/Indicator: TA98, Metabolic Activation: RAT, LIVER, S-9, AROCLOR 1254 (10 OR 30%), Method: PREINCUBATION
[7] = Test System: AMES SALMONELLA TYPHIMURIUM, Strain/Indicator: TA100, Metabolic Activation: NONE, Method: PREINCUBATION
[8] = Test System: AMES SALMONELLA TYPHIMURIUM, Strain/Indicator: TA1535, Metabolic Activation: HAMSTER, LIVER, S-9, AROCLOR 1254 (10 OR 30%), Method: PREINCUBATION
[9] = Test System: AMES SALMONELLA TYPHIMURIUM, Strain/Indicator: TA1535, Metabolic Activation: NONE, Method: PREINCUBATION
[10] = Test System: AMES SALMONELLA TYPHIMURIUM, Strain/Indicator: TA1535, Metabolic Activation: RAT, LIVER, S-9, AROCLOR 1254 (10 OR 30%), Method: PREINCUBATION

CCOc1ccccc1N was tested, and the mutagenic call [1] was “inactive; negative”, the mutagenic call [2] was “inactive; negative” and the mutagenic call [3] was “inactive; negative”. The mutagenic call [4] was “inactive; negative”, the mutagenic call [5] was “inactive; negative” and the mutagenic call [6] was “inactive; negative”. For the same compound, the mutagenic call (Test System: AMES SALMONELLA TYPHIMURIUM, Strain/Indicator: TA100, Metabolic Activation: HAMSTER, LIVER, S-9, AROCLOR 1254 (10%), Method: PREINCUBATION) was “inactive; negative”, the mutagenic call (Test System: AMES SALMONELLA TYPHIMURIUM, Strain/Indicator: TA100, Metabolic Activation: HAMSTER, LIVER, S-9, AROCLOR 1254 (30%), Method: PREINCUBATION) was “inactive; negative” and the mutagenic call [7] was “inactive; negative”. For the same compound, the mutagenic call (Test System: AMES SALMONELLA TYPHIMURIUM, Strain/Indicator: TA100, Metabolic Activation: RAT, LIVER, S-9, AROCLOR 1254 (10%), Method: PREINCUBATION) was “inactive; negative”, the mutagenic call (Test System: AMES SALMONELLA TYPHIMURIUM, Strain/Indicator: TA100, Metabolic Activation: RAT, LIVER, S-9, AROCLOR 1254 (30%), Method: PREINCUBATION) was “inactive; negative” and the mutagenic call [8] was “inactive; negative”. The mutagenic call [9] was “inactive; negative” and the mutagenic call [10] was “inactive; negative”.
With CCOc1ccc(NC(N)=O)cc1 the mutagenic call (Test System: AMES SALMONELLA TYPHIMURIUM, Strain/Indicator: TA98, Metabolic Activation: HAMSTER, LIVER, S-9, AROCLOR 1254, Method: PREINCUBATION) was “inactive; negative”, the mutagenic call [5] was “inactive; negative” and the mutagenic call (Test System: AMES SALMONELLA TYPHIMURIUM, Strain/Indicator: TA98, Metabolic Activation: RAT, LIVER, S-9, AROCLOR 1254, Method: PREINCUBATION) was “inactive; negative”. For the same compound, the mutagenic call (Test System: AMES SALMONELLA TYPHIMURIUM, Strain/Indicator: TA100, Metabolic Activation: HAMSTER, LIVER, S-9, AROCLOR 1254, Method: PREINCUBATION) was “inactive; negative”, the mutagenic call [7] was “inactive; negative” and the mutagenic call (Test System: AMES SALMONELLA TYPHIMURIUM, Strain/Indicator: TA100, Metabolic Activation: RAT, LIVER, S-9, AROCLOR 1254, Method: PREINCUBATION) was “inactive; negative”. The mutagenic call (Test System: AMES SALMONELLA TYPHIMURIUM, Strain/Indicator: TA1535, Metabolic Activation: HAMSTER, LIVER, S-9, AROCLOR 1254, Method: PREINCUBATION) was “inactive; negative”, the mutagenic call [9] was “inactive; negative” and the mutagenic call (Test System: AMES SALMONELLA TYPHIMURIUM, Strain/Indicator: TA1535, Metabolic Activation: RAT, LIVER, S-9, AROCLOR 1254, Method: PREINCUBATION) was “inactive; negative”. For the same compound, the mutagenic call (Test System: AMES SALMONELLA TYPHIMURIUM, Strain/Indicator: TA1537, Metabolic Activation: HAMSTER, LIVER, S-9, AROCLOR 1254, Method: PREINCUBATION) was “inactive; negative”, the mutagenic call (Test System: AMES SALMONELLA TYPHIMURIUM, Strain/Indicator: TA1537, Metabolic Activation: NONE, Method: PREINCUBATION) was “inactive; negative” and the mutagenic call (Test System: AMES SALMONELLA TYPHIMURIUM, Strain/Indicator: TA1537, Metabolic Activation: RAT, LIVER, S-9, AROCLOR 1254, Method: PREINCUBATION) was “inactive; negative”.
With CC(=O)ON(C(C)=O)c1ccc2c(c1)Cc1ccccc1-2 the mutagenic call (Test System: AMES SALMONELLA TYPHIMURIUM, Strain/Indicator: TA98, Metabolic Activation: NONE, Method: STANDARD PLATE) was “active; positive”, the mutagenic call (Test System: AMES SALMONELLA TYPHIMURIUM, Strain/Indicator: TA98, Metabolic Activation: RAT, LIVER, S-9, AROCLOR 1254, Method: STANDARD PLATE) was “active; positive” and the mutagenic call (Test System: AMES SALMONELLA TYPHIMURIUM, Strain/Indicator: TA1538, Metabolic Activation: NONE, Method: STANDARD PLATE) was “active; positive”. The mutagenic call (Test System: AMES SALMONELLA TYPHIMURIUM, Strain/Indicator: TA1538, Metabolic Activation: RAT, LIVER, S-9, KC500 OR PHENOBARBITAL, Method: LIQUID SUSPENSION) was “active; positive”, the mutagenic call (Test System: CHINESE HAMSTER V-79, Strain/Indicator: V-79/6-THIOGUANINE, Metabolic Activation: NONE) was “active; positive” and the mutagenic call (Test System: CHINESE HAMSTER V-79, Strain/Indicator: V-79/8-AZAGUANINE, Metabolic Activation: NONE, Method: STANDARD PLATE) was “active; positive”. For the same compound, the mutagenic call (Test System: UDS HUMAN CELLS, Strain/Indicator: THY INCORP (NON-S-PHASE), Metabolic Activation: NONE, Method: LIQUID SCINTILLATION COUNTING) was “active; positive”, the mutagenic call (Test System: UDS HUMAN FIBROBLASTS, Strain/Indicator: THY INCORP (NON-S-PHASE), Metabolic Activation: NONE, Method: AUTORADIOGRAPHY) was “active; positive” and the mutagenic call (Test System: UDS HUMAN FIBROBLASTS, Strain/Indicator: THY INCORP (NON-S-PHASE), Metabolic Activation: NONE, Method: LIQUID SCINTILLATION COUNTING) was “active; positive”. For the same compound, the mutagenic call (Test System: UDS HUMAN LYMPHOCYTES, Strain/Indicator: THY INCORP (NON-S-PHASE), Metabolic Activation: NONE, Method: LIQUID SCINTILLATION COUNTING) was “active; positive”, the mutagenic call (Test System: UDS RODENT CELLS, Strain/Indicator: THY INCORP (NON-S-PHASE), Metabolic Activation: NONE, Method: AUTORADIOGRAPHY) was “active; positive” and the mutagenic call (Test System: UDS RODENT CELLS, Strain/Indicator: THY INCORP (NON-S-PHASE), Metabolic Activation: NONE, Method: LIQUID SCINTILLATION COUNTING) was “active; positive”. The mutagenic call (Test System: UDS RODENT HEPATOCYTES, Strain/Indicator: THY INCORP (NON-S-PHASE), Method: LIQUID SCINTILLATION COUNTING) was “active; positive” and the mutagenic call (Test System: UDS RODENT PRIMARY CELLS, Strain/Indicator: THY INCORP (NON-S-PHASE), Metabolic Activation: NONE, Method: AUTORADIOGRAPHY) was “active; positive”.
With CCOCCl the mutagenic call (Test System: E. COLI, Strain/Indicator: H/R30R, Metabolic Activation: NONE, Method: PREINCUBATION) was “active; positive” and the mutagenic call (Test System: E. COLI, Strain/Indicator: HS30R UVRA, Metabolic Activation: NONE, Method: PREINCUBATION) was “active; positive”.
With CCC#N the mutagenic call (End Point: IN VITRO CHROMOSOMAL ABERRATIONS, Test System: CHO-LB CELLS, Metabolic Activation: NONE) was “inactive; negative”, the mutagenic call (End Point: IN VITRO CHROMOSOMAL ABERRATIONS, Test System: CHO-LB CELLS, Metabolic Activation: RAT, LIVER, S-9, AROCLOR 1254) was “inactive; negative” and the mutagenic call [1] was “inactive; negative”. For the same compound, the mutagenic call [2] was “inactive; negative”, the mutagenic call [3] was “inactive; negative” and the mutagenic call [4] was “inactive; negative”. The mutagenic call [5] was “inactive; negative”, the mutagenic call [6] was “inactive; negative” and the mutagenic call (Test System: AMES SALMONELLA TYPHIMURIUM, Strain/Indicator: TA100, Metabolic Activation: HAMSTER, LIVER, S-9, AROCLOR 1254 (10 OR 30%), Method: PREINCUBATION) was “inactive; negative”. The mutagenic call [7] was “inactive; negative”, the mutagenic call (Test System: AMES SALMONELLA TYPHIMURIUM, Strain/Indicator: TA100, Metabolic Activation: RAT, LIVER, S-9, AROCLOR 1254 (10 OR 30%), Method: PREINCUBATION) was “inactive; negative” and the mutagenic call [8] was “inactive; negative”. The mutagenic call [9] was “inactive; negative” and the mutagenic call [10] was “inactive; negative”.
